Reference: US8524755B2 (priority 2009, dated 2013)

How the values were obtained:
Conditions in all cases: read-out: % Inhibition of Control Specific Binding @ 10 μM
[1] = target: T1, Corticotropin Releasing Factor CRF1 (h) (Homo sapiens, UniProt P34998); assay: Binding CRF1 (h) (ag)
T1 construct: expressed in transfected cells; host or cells: CHO cells
T1 sequence (P34998 24-415): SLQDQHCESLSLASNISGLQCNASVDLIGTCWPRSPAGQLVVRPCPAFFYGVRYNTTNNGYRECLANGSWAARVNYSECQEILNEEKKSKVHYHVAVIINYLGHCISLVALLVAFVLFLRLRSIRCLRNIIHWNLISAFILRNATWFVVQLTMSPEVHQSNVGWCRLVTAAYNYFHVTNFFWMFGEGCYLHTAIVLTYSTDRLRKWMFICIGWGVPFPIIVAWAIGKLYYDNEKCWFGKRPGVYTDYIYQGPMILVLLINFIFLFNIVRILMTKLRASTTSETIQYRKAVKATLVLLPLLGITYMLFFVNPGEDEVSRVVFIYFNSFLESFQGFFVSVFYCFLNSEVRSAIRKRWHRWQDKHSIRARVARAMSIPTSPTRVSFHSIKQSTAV
Method: (§1) Radioligand binding assay methods utilized to measure the activity of compounds of the invention will be familiar to those skilled in the art. In each assay case, the assay components such as, for example, the cell-type, ligand, reference compound and the like, will be familiar to practitioners of such an assay.
(§2) Analysis and Expression of Results: Compounds of the invention were tested in the biochemical assays and percent inhibition of specific binding was determined. The specific ligand binding to the receptors is defined as the difference between the total binding and the nonspecific binding determined in the presence of an excess of unlabelled ligand. The results are expressed as a percent inhibition of control specific binding (100−((measured specific binding/control specific binding)×100)) obtained in the presence of test compounds.

[2] = target: T2, Cholecystokinin CCK2 (CCKB) (h) (Homo sapiens, UniProt P32239); assay: Binding CCK2 (CCKB) (h) (ag)
T2 construct: expressed in transfected cells; host or cells: CHO cells
T2 sequence (P32239 1-447): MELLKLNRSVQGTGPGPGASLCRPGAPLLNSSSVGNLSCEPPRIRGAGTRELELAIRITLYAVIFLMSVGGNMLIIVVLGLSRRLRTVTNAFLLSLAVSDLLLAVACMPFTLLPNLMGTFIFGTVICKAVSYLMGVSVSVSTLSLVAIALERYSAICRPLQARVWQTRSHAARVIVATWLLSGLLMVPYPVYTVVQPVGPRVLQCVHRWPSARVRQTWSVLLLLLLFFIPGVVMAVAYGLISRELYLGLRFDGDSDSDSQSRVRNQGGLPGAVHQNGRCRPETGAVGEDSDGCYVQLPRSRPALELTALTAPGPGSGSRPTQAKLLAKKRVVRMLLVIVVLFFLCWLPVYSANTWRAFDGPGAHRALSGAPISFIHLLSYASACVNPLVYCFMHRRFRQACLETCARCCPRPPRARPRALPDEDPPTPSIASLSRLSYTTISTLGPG
Method: as §1, §2

[3] = target: T3, Adenosine A3 (h) (Homo sapiens, UniProt P0DMS8); assay: Binding A3 (h) (ag)
T3 construct: expressed in transfected cells; host or cells: HEK-293 cells
T3 sequence (P0DMS8 1-318): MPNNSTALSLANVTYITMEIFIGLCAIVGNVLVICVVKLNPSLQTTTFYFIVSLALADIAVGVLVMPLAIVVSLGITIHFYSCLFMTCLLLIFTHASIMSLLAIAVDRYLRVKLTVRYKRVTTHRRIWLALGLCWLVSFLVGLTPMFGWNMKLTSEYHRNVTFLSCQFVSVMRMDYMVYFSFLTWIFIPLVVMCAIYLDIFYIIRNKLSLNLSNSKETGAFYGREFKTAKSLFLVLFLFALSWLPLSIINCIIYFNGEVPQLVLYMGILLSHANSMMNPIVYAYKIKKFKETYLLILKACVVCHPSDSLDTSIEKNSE
Method: as §1, §2

[4] = target: T4, β2 (h) (Homo sapiens, UniProt P07550); assay: Binding β2 (h) (ag)
T4 construct: expressed in transfected cells; host or cells: CHO cells
Method: as §1, §2

T4 sequence (P07550 whole entry): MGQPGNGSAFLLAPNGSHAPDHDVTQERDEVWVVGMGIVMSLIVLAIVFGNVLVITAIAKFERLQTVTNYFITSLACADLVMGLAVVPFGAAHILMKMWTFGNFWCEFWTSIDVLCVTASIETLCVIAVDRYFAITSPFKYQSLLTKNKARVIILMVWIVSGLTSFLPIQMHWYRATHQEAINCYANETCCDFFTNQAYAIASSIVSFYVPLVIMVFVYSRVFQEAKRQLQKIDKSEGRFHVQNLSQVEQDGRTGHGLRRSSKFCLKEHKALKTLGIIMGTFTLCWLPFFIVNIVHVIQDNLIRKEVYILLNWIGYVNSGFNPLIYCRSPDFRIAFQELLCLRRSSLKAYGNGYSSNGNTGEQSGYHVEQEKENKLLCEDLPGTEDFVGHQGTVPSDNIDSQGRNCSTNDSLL

Row | Compound | inhibition at 10 µM [1] [%] | inhibition at 10 µM [2] [%] | inhibition at 10 µM [3] [%] | inhibition at 10 µM [4] [%]
1 | CC1(C)C(=O)N(c2ccc(C#N)c(C(F)(F)F)c2)C(=O)N1c1ccc(C(N)=O)c(F)c1 [(MIII), 4-(3-(4-cyano-3-(trifluoromethyl)phenyl)-5,5-dimethyl-2,4-dioxoimidazolidin-1-yl)-2-fluorobenzamide] | -9 | -18 | 11 | -6
2 | CC1(C)C(=O)N(c2ccc(C#N)c(C(F)(F)F)c2)C(=S)N1c1ccc(C(=O)O)c(F)c1 [(MI), 4-(3-(4-cyano-3-(trifluoromethyl)phenyl)-5,5-dimethyl-4-oxo-2-thioxoimidazolidin-1-yl)-2-fluorobenzoic acid] | -4 | -10 | 69 | 6
3 | CNC(=O)c1ccc(N2C(=O)N(c3ccc(C#N)c(C(F)(F)F)c3)C(=O)C2(C)C)cc1F [(MIV), 4-(3-(4-cyano-3-(trifluoromethyl)phenyl)-5,5-dimethyl-2,4-dioxoimidazolidin-1-yl)-2-fluoro-N-methylbenzamide] | -23 | -12 | 50 | -10
4 | CC1(C)C(=O)N(c2ccc(C#N)c(C(F)(F)F)c2)C(=S)N1c1ccc(C(N)=O)c(F)c1 [(MII), 4-(3-(4-Cyano-3-(trifluoromethyl)phenyl)-5,5-dimethyl-4-oxo-2-thioxoimidazolidin-1-yl)-2-fluorobenzamide] | 1 | -18 | 17 | -3
